Measurements from ChEMBL document CHEMBL4673346, “Discovery of a benzimidazole series as the first highly potent and selective ACSL1 inhibitors” (Bioorg Med Chem Lett, 2021).
In brackets after ≈: the same amount, converted by molar mass.

Columns and labels:
[1] = target: Cytochrome P450 2C9 (Homo sapiens, UniProt P11712); test: Inhibition of CYP2C9 (unknown origin); format: ADME
[2] = target: Cytochrome P450 2D6 (Homo sapiens, UniProt P10635); test: Inhibition of CYP2D6 (unknown origin); format: ADME
[3] = target: Long-chain-fatty-acid--CoA ligase 4 (Homo sapiens, UniProt O60488); test: Inhibition of recombinant human ACSL4 assessed as reduction in […] prodution incubated for 120 mins in presence of Coenzyme A, ATP and MgCl2 by MALDI-TOF MS analysis
[4] = target: T1, Long-chain-fatty-acid--CoA ligase 6 (Homo sapiens, UniProt Q9UKU0); test: Inhibition of recombinant human ACSL6 assessed as reduction in […] prodution incubated for 60 mins in presence of Coenzyme A, ATP and MgCl2 by MALDI-TOF MS analysis
T1 sequence (Q9UKU0 whole entry): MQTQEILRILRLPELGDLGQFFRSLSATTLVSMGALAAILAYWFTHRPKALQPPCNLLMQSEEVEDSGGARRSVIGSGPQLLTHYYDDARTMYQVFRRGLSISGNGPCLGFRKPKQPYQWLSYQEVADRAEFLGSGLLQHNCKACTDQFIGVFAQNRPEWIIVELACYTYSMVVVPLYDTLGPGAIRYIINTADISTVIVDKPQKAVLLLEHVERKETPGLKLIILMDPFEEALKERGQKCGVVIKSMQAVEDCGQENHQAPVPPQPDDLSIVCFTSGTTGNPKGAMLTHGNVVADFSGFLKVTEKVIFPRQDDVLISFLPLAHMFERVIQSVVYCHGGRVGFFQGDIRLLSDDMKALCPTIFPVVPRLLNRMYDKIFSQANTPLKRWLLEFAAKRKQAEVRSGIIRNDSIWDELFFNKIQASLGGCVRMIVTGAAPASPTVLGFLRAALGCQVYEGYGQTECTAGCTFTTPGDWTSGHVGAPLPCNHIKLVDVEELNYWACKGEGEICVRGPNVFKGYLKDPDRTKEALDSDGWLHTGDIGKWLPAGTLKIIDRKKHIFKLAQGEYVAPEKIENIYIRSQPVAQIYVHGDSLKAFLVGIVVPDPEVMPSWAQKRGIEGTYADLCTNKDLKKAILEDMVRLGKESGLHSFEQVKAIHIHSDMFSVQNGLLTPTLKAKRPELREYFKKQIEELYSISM

[5] = Metabolic stability in mouse liver microsomes assessed as compound remaining after 30 mins; format: ADME, Microsome; details: read-out: Stabilty
[6] = Solubility of compound in pH 6.8 with TCA; format: physicochemical
[7] = target: T2, Long-chain-fatty-acid--CoA ligase 1 (Mus musculus, UniProt P41216); test: Inhibition of recombinant mouse ACSL1 assessed as reduction in […] prodution incubated for 90 mins in presence of Coenzyme A, ATP and MgCl2 by MALDI-TOF MS analysis
T2 sequence (P41216 whole entry): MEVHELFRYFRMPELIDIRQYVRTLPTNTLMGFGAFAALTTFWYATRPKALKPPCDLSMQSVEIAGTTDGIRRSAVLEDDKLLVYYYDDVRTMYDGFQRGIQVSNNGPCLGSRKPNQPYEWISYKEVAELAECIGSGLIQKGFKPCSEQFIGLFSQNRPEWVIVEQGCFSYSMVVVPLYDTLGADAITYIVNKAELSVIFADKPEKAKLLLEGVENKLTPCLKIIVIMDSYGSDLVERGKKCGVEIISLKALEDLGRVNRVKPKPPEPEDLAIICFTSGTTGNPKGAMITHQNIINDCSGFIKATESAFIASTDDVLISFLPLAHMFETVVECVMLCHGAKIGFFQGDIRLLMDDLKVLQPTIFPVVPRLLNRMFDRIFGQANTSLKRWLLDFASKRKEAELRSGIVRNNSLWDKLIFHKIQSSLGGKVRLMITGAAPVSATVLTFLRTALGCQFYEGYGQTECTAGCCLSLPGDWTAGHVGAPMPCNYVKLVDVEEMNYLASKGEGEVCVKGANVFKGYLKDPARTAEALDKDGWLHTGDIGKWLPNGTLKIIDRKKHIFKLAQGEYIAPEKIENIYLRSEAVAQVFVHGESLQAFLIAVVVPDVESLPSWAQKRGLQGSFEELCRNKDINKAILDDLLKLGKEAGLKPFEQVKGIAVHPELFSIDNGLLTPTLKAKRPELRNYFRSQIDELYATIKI

[8] = Fraction unbound in rat plasma; format: ADME, cell-free
[9] = system: Mus musculus; test: In vivo inhibition of ACSL1 in mouse assessed as reduction in acyl-coA production in liver administered orally using oleic acid as substrate and measured after 17 hrs; format: functional, organism-based
[10] = Inhibition of insulin/isobutyl-1-methylxanthin/dexamethasone-induced adipocytes differentiation in mouse 3T3-L1 cells by measuring 14C-triglyceride levels incubated for 1 hrs followed by oleic acid addition and measured after 10 mins by microbeta scintillation counting method; format: functional; details: 3T3-L1, 1.167 h, time 70 min
[11] = target: Fatty acid CoA ligase Acsl3 (Homo sapiens, UniProt O95573); test: Inhibition of recombinant human ACSL3 assessed as reduction in […] prodution incubated for 90 mins in presence of Coenzyme A, ATP and MgCl2 by MALDI-TOF MS analysis
[12] = Oral bioavailability in rat at 1 mg/kg; format: ADME, organism-based; details: in vivo

Chain of Fatty acid CoA ligase Acsl3 (O95573 whole entry): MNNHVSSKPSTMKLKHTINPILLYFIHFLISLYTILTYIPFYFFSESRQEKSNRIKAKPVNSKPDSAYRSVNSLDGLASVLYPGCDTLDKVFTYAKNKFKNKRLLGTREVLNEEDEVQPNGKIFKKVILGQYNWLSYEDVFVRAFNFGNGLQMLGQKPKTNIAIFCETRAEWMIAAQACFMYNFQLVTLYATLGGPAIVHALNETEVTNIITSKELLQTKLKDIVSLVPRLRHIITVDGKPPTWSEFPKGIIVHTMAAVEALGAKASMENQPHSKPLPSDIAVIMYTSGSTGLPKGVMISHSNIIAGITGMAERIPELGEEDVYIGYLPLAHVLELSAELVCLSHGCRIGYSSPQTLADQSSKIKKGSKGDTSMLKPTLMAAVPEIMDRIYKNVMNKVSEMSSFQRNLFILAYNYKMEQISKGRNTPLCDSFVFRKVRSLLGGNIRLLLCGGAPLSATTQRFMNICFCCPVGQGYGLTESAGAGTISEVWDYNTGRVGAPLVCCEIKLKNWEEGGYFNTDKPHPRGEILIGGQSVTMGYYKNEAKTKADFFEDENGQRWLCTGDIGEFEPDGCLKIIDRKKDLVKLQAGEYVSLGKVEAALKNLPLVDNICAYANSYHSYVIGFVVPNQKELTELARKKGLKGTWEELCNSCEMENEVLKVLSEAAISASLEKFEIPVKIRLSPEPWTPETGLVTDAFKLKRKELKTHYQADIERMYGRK
Chain of Cytochrome P450 2C9 (P11712 whole entry): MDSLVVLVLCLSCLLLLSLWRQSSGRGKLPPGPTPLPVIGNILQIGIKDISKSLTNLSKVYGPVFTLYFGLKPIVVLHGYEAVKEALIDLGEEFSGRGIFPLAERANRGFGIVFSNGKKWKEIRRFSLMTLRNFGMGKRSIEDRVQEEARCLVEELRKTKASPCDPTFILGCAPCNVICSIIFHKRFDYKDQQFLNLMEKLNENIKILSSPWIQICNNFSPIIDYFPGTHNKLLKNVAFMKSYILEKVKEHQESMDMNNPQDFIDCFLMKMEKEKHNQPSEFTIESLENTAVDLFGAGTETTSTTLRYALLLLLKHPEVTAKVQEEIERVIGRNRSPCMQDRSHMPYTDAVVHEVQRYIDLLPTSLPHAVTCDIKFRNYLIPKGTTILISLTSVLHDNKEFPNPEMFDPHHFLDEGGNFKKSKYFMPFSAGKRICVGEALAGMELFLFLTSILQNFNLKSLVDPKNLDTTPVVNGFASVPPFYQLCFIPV
Chain of Long-chain-fatty-acid--CoA ligase 4 (O60488 whole entry): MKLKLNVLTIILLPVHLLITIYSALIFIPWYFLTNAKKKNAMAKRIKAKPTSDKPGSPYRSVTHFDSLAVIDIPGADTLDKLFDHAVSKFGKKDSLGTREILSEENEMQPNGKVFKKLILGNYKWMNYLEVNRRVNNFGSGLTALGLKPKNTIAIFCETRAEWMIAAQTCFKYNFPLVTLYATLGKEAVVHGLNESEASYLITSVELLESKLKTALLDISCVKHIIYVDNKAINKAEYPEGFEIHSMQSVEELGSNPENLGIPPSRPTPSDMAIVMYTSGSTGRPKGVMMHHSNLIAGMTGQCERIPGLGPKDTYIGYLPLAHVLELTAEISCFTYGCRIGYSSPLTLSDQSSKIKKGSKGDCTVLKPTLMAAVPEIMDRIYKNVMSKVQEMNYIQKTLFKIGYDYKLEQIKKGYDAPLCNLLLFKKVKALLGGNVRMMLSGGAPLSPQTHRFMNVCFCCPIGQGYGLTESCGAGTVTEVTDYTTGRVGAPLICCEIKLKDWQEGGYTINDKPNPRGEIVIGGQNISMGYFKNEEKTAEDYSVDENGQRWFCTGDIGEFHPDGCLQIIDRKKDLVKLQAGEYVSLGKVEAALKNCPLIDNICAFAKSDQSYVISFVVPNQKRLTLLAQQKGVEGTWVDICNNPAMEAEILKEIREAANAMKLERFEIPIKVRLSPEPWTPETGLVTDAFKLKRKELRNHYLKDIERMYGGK
Chain of Cytochrome P450 2D6 (P10635 whole entry): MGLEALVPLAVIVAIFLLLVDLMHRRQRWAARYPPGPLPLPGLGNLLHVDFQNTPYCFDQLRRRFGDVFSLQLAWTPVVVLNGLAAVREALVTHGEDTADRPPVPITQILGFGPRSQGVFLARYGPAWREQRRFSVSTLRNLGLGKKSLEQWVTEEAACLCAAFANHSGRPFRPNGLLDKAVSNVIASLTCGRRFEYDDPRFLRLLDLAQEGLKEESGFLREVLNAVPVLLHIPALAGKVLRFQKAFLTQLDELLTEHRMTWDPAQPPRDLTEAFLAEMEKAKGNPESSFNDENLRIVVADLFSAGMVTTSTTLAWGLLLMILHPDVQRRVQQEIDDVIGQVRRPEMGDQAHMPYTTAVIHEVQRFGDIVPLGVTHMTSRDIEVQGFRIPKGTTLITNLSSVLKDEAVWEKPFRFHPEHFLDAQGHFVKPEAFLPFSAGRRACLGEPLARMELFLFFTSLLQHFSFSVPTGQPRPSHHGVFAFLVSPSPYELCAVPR

- IC50 [1]: > 20 µM
- IC50 [2]: > 20 µM
- IC50 [3]: > 200 µM
- IC50 [4]: > 200 µM
- remaining at 0.5 h [5]: 99%
- solubility [6]: 24 µg/mL (≈ 63.4 µM)
- IC50 [7]: 0.03 µM
- fraction unbound [8]: 0.017
- IC50 [11]: > 200 µM
- bioavailability [12]: 119%
SMILES: Cc1cccc(Cc2nc3cc(O[C@H]4CC[C@@H](C(=O)O)CC4)ccc3n2C)c1
- inhibition [9]: Dose-dependent effect
- IC30 [10]: 0.039 µM
